Laboratory results: patent US20250270200A1, “CTPS1 INHIBITORS AND USES THEREOF” (Nimbus Clotho, Inc., priority 2022, published 2025)

Biological target: T1, human CTPS1 (Homo sapiens, UniProt P17812)
T1 sequence (P17812 1-591): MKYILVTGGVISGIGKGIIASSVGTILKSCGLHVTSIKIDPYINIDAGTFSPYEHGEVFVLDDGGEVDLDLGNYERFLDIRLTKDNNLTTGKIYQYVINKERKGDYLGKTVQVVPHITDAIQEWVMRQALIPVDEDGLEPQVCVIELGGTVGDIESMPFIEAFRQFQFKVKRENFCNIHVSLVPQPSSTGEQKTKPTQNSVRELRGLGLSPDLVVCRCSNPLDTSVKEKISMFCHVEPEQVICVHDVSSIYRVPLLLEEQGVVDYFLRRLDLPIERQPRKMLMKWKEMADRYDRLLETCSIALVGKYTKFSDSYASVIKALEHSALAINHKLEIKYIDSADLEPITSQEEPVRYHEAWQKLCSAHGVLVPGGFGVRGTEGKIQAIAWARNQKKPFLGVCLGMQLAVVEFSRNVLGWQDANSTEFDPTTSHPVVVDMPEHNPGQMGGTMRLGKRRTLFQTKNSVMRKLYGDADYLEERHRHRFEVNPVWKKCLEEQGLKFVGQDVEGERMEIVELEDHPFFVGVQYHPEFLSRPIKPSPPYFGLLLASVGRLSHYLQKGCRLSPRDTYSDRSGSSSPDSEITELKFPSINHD
Assay: ADP-Glo assay, human CTPS1 enzyme inhibition
Format: biochemical
Details: wild-type human CTPS1, 25 nM enzyme; ADP-Glo; read-out: ADP-Glo_WT_hCTPS1—25 nM_IC50 (IC50)
Outline: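 Full-length tagged human CTPS1 (25 nM) pre-incubated 10 min at 25° C with compound, then 10 min with ATP (120 μM) and UTP (160 μM); reaction started with L-glutamine (100 μM) and GTP (60 μM), 1% DMSO, in HEPES pH 7.4, 10 mM Mg2+, 5 mM KCl, 2 mM DTT. Run within linear phase at 25° C; ADP measured by ADP-Glo luminescence.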

Row | SMILES | IC50
1 | CCOc1cncc(-c2cnc(C(=O)N[C@H](Cn3nccn3)c3cccc(NS(=O)(=O)C(F)F)c3)s2)n1 [I-216, (S)-N-(1-(3-((difluoromethyl)sulfonamido)phenyl)-2-(2H-1,2,3-triazol-2-yl)ethyl)-5-(6-ethoxypyrazin-2-yl)thiazole-2-carboxamide] | ≤ 5 nM
2 | CCOc1cncc(-c2cnc(C(=O)N[C@@H](Cn3nccn3)c3cccc(NS(=O)(=O)C(F)F)c3)s2)n1 [I-217, (R)-N-(1-(3-((difluoromethyl)sulfonamido)phenyl)-2-(2H-1,2,3-triazol-2-yl)ethyl)-5-(6-ethoxypyrazin-2-yl)thiazole-2-carboxamide] | 5 to 25 nM
3 | CCOc1cncc(-c2cnc(C(=O)N[C@H](CN3CCCCC3)c3cccc(NS(=O)(=O)C(F)F)c3)s2)n1 [I-218, (S)-N-(1-(3-((difluoromethyl)sulfonamido)phenyl)-2-(piperidin-1-yl)ethyl)-5-(6-ethoxypyrazin-2-yl)thiazole-2-carboxamide] | 25 to 50 nM
4 | CCOc1cncc(-c2cnc(C(=O)N[C@@H](CN3CCCCC3)c3cccc(NS(=O)(=O)C(F)F)c3)s2)n1 [I-219, (R)-N-(1-(3-((difluoromethyl)sulfonamido)phenyl)-2-(piperidin-1-yl)ethyl)-5-(6-ethoxypyrazin-2-yl)thiazole-2-carboxamide] | 5 to 25 nM
5 | O=C(N[C@H](CN1CCCC1)c1cccc(NS(=O)(=O)C(F)F)c1)c1ncc(-c2cnn3ccc(Cl)cc23)s1 [I-220, (S)-5-(5-chloropyrazolo[1,5-a]pyridin-3-yl)-N-(1-(3-((difluoromethyl)sulfonamido)phenyl)-2-(pyrrolidin-1-yl)ethyl)thiazole-2-carboxamide] | 25 to 50 nM
6 | O=C(N[C@@H](CN1CCCC1)c1cccc(NS(=O)(=O)C(F)F)c1)c1ncc(-c2cnn3ccc(Cl)cc23)s1 [I-221, (R)-5-(5-chloropyrazolo[1,5-a]pyridin-3-yl)-N-(1-(3-((difluoromethyl)sulfonamido)phenyl)-2-(pyrrolidin-1-yl)ethyl)thiazole-2-carboxamide] | 25 to 50 nM
7 | CCOc1cncc(-c2cnc(C(=O)N[C@@H](c3cccc(NS(=O)(=O)C(F)F)c3)[C@H](C)N3CCOCC3)s2)n1 [I-222, N-((1S,2S)-1-(3-((difluoromethyl)sulfonamido)phenyl)-2-morpholinopropyl)-5-(6-ethoxypyrazin-2-yl)thiazole-2-carboxamide] | 5 to 25 nM
8 | CCOc1cncc(-c2cnc(C(=O)N[C@H](c3cccc(NS(=O)(=O)C(F)F)c3)[C@@H](C)N3CCOCC3)s2)n1 [I-224, N-((1R,2R)-1-(3-((difluoromethyl)sulfonamido)phenyl)-2-morpholinopropyl)-5-(6-ethoxypyrazin-2-yl)thiazole-2-carboxamide] | 5 to 25 nM
9 | CCOc1cncc(-c2cnc(C(=O)N[C@@H](c3cc(NS(=O)(=O)C4CC4)ccn3)[C@@H](C)CO)s2)n1 [I-226, N-((1R,2R)-1-(4-(cyclopropanesulfonamido)pyridin-2-yl)-3-hydroxy-2-methylpropyl)-5-(6-ethoxypyrazin-2-yl)thiazole-2-carboxamide] | 5 to 25 nM
10 | CCOc1cncc(-c2cnc(C(=O)N[C@@H](c3cc(NS(=O)(=O)C4CC4)ccn3)[C@H](C)CO)s2)n1 [I-227, N-((1R,2S)-1-(4-(cyclopropanesulfonamido)pyridin-2-yl)-3-hydroxy-2-methylpropyl)-5-(6-ethoxypyrazin-2-yl)thiazole-2-carboxamide] | ≤ 5 nM
11 | CCOc1cncc(-c2cnc(C(=O)N[C@H](c3cc(NS(=O)(=O)C4CC4)ccn3)[C@@H](C)CO)s2)n1 [I-228, N-((1S,2R)-1-(4-(cyclopropanesulfonamido)pyridin-2-yl)-3-hydroxy-2-methylpropyl)-5-(6-ethoxypyrazin-2-yl)thiazole-2-carboxamide] | 5 to 25 nM
12 | CCOc1cncc(-c2cnc(C(=O)N[C@H](c3cc(NS(=O)(=O)C4CC4)ccn3)[C@H](C)CO)s2)n1 [I-229, N-((1S,2S)-1-(4-(cyclopropanesulfonamido)pyridin-2-yl)-3-hydroxy-2-methylpropyl)-5-(6-ethoxypyrazin-2-yl)thiazole-2-carboxamide] | ≤ 5 nM
13 | C[C@H](CO)[C@@H](NC(=O)c1ncc(-c2cnn3ccc(Cl)cc23)s1)c1cc(NS(=O)(=O)C2CC2)ccn1 [I-230, 5-(5-chloropyrazolo[1,5-a]pyridin-3-yl)-N-((1R,2S)-1-(4-(cyclopropanesulfonamido)pyridin-2-yl)-3-hydroxy-2-methylpropyl)thiazole-2-carboxamide] | ≤ 5 nM

Other lines, results leading:

Row | IC50 | SMILES
14 | 5 to 25 nM | C[C@@H](CO)[C@@H](NC(=O)c1ncc(-c2cnn3ccc(Cl)cc23)s1)c1cc(NS(=O)(=O)C2CC2)ccn1 [I-231, 5-(5-chloropyrazolo[1,5-a]pyridin-3-yl)-N-((1R,2R)-1-(4-(cyclopropanesulfonamido)pyridin-2-yl)-3-hydroxy-2-methylpropyl)thiazole-2-carboxamide]
15 | 5 to 25 nM | C[C@@H](CO)[C@H](NC(=O)c1ncc(-c2cnn3ccc(Cl)cc23)s1)c1cc(NS(=O)(=O)C2CC2)ccn1 [I-232, 5-(5-chloropyrazolo[1,5-a]pyridin-3-yl)-N-((1S,2R)-1-(4-(cyclopropanesulfonamido)pyridin-2-yl)-3-hydroxy-2-methylpropyl)thiazole-2-carboxamide]
16 | 5 to 25 nM | C[C@H](CO)[C@H](NC(=O)c1ncc(-c2cnn3ccc(Cl)cc23)s1)c1cc(NS(=O)(=O)C2CC2)ccn1 [I-233, 5-(5-chloropyrazolo[1,5-a]pyridin-3-yl)-N-((1S,2S)-1-(4-(cyclopropanesulfonamido)pyridin-2-yl)-3-hydroxy-2-methylpropyl)thiazole-2-carboxamide]
17 | ≤ 5 nM | CCOc1cncc(-c2cnc(C(=O)N[C@@H](c3cc(NS(=O)(=O)C4CC4)ccn3)[C@H](C)COC)s2)n1 [I-234, N-((1R,2S)-1-(4-(cyclopropanesulfonamido)pyridin-2-yl)-3-methoxy-2-methylpropyl)-5-(6-ethoxypyrazin-2-yl)thiazole-2-carboxamide]
18 | 5 to 25 nM | CCOc1cncc(-c2cnc(C(=O)N[C@@H](c3cc(NS(=O)(=O)C4CC4)ccn3)[C@@H](C)COC)s2)n1 [I-235, N-((1R,2R)-1-(4-(cyclopropanesulfonamido)pyridin-2-yl)-3-methoxy-2-methylpropyl)-5-(6-ethoxypyrazin-2-yl)thiazole-2-carboxamide]
19 | ≤ 5 nM | CCOc1cncc(-c2cnc(C(=O)N[C@H](c3cc(NS(=O)(=O)C4CC4)ccn3)[C@@H](C)COC)s2)n1 [I-236, N-((1S,2R)-1-(4-(cyclopropanesulfonamido)pyridin-2-yl)-3-methoxy-2-methylpropyl)-5-(6-ethoxypyrazin-2-yl)thiazole-2-carboxamide]
20 | ≤ 5 nM | CCOc1cncc(-c2cnc(C(=O)N[C@H](c3cc(NS(=O)(=O)C4CC4)ccn3)[C@H](C)COC)s2)n1 [I-237, N-((1S,2S)-1-(4-(cyclopropanesulfonamido)pyridin-2-yl)-3-methoxy-2-methylpropyl)-5-(6-ethoxypyrazin-2-yl)thiazole-2-carboxamide]
21 | 25 to 50 nM | CCOc1cncc(-c2cnc(C(=O)N[C@@H](CO[C@H]3CCOC3)c3cc(NS(=O)(=O)C4CC4)ccn3)s2)n1 [I-238, N-((R)-1-(4-(cyclopropanesulfonamido)pyridin-2-yl)-2-(((S)-tetrahydrofuran-3-yl)oxy)ethyl)-5-(6-ethoxypyrazin-2-yl)thiazole-2-carboxamide]
22 | 5 to 25 nM | CCOc1cncc(-c2cnc(C(=O)N[C@@H](CO[C@@H]3CCOC3)c3cc(NS(=O)(=O)C4CC4)ccn3)s2)n1 [I-239, N-((R)-1-(4-(cyclopropanesulfonamido)pyridin-2-yl)-2-(((R)-tetrahydrofuran-3-yl)oxy)ethyl)-5-(6-ethoxypyrazin-2-yl)thiazole-2-carboxamide]
23 | 5 to 25 nM | CCOc1cncc(-c2cnc(C(=O)N[C@H](CO[C@@H]3CCOC3)c3cc(NS(=O)(=O)C4CC4)ccn3)s2)n1 [I-240, N-((S)-1-(4-(cyclopropanesulfonamido)pyridin-2-yl)-2-(((R)-tetrahydrofuran-3-yl)oxy)ethyl)-5-(6-ethoxypyrazin-2-yl)thiazole-2-carboxamide]
24 | 5 to 25 nM | CCOc1cncc(-c2cnc(C(=O)N[C@H](CO[C@H]3CCOC3)c3cc(NS(=O)(=O)C4CC4)ccn3)s2)n1 [I-241, N-((S)-1-(4-(cyclopropanesulfonamido)pyridin-2-yl)-2-(((S)-tetrahydrofuran-3-yl)oxy)ethyl)-5-(6-ethoxypyrazin-2-yl)thiazole-2-carboxamide]
25 | ≤ 5 nM | CCOc1cncc(-c2cnc(C(=O)N[C@H](c3cccc(NS(=O)(=O)C(F)F)c3)[C@H](C)CO)s2)n1 [I-242, N-((1S,2S)-1-(3-((difluoromethyl)sulfonamido)phenyl)-3-hydroxy-2-methylpropyl)-5-(6-ethoxypyrazin-2-yl)thiazole-2-carboxamide]
26 | 5 to 25 nM | CCOc1cncc(-c2cnc(C(=O)N[C@H](c3cccc(NS(=O)(=O)C(F)F)c3)[C@@H](C)CO)s2)n1 [I-243, N-((1S,2R)-1-(3-((difluoromethyl)sulfonamido)phenyl)-3-hydroxy-2-methylpropyl)-5-(6-ethoxypyrazin-2-yl)thiazole-2-carboxamide]
